The test system of assay [1] is Aspergillus Niger, Penicillium funiculosum, Rhizopus javanicus, Aureobasidium pullulans, Gliocladium virens. Nature of the assay: Fungicide activity for wood fungicide, sum over the five fungi and damage value. Type of assay: cell-based. As to conditions: for damage value (D = S₁ / S₀ × 100): relative to untreated specimens (100.0), lower = higher activity; for wood fungicide activity: statement in words on Table 3. The protocol: This test was conducted according to Specification No.2 of Japan Wood Preserving Association, enacted in 1979 and titled "Test methods of fungicide activity for wood fungicide".
• ① Aspergillus niger van Tieghem IFO 6341 = ATCC 6275 • ② Penicillium funiculosum Thom (formerly : Penicillium luteum Zukal) IFO 6345 = ATCC 9644 . • ③ Rhizopus javanicus Takeda (formerly : Rhizopus nigricans Ehrenberg S.N. 32) IFO 6354 • ④ Aureobasidium pullulans (de Bary) Arnaud IFO 6353 = IAM (H. Iizuka, F-24) • ⑤ Gliocladium virens Miller, Gidden & Fosteb IFO 6355 = ATCC 9645 (formerly : Trichoderma viride, T.I.)
The average rating (A) was determined for each type of fungi with the following equation: Average rating (A) = (a₁ + a₂ + a₃ + a₄ + a₅ + a₆ ) / 6 [formula] wherein a₁, a₂ ...a₆ : rating for each test specimen.
The damage value was determined with the following equation after determining the sum of average rating by adding each rating of test specimens for each concentration of fungicide solution: S = A₁ + A₂ + A₃ + A₄ + A₅ [formula] wherein A₁, A₂.., A₅: average rating for each type of fungi D = S₁ / S₀ × 100 [formula] wherein S₀ : S for untreated test specimens S₁ : S for specimens treated with certain concentration of fungicide solution
Both lower rating value and lower damage value correspond to higher wood fungicide activity. […]

The test system of the next assay is wood rot fungi. Kind of assay: Preserving activity for wood preservatives, overall statement for both wood rot fungi. The format is cell-based, Tyromyces palustris, Coriolus versicolor. As to conditions: statement in words on Table 2. The procedure:
This test was conducted according to Specification No. 1 of Japan Wood Preserving Association, enacted in 1979, amended in 1989 and titled "Test methods of preserving activity for wood preservatives used in the coating, spraying and dipping treatment".
• ① Tyromyces palustris (Ber. et Curt.) Murr., FFPRI 0507 --"Ouzuratake" • ② Coriolus versicolor(L. ex Fr.) Quélet, FFPRI 1030 --"Kawaratake" These two fungi are classified as wood rot fungi.
The antimicrobial operation was performed with specifying types of fungi for corresponding type of trees. The combinations were as follows: Cedar----Tyromyces palustris ("Ouzuratake") Beech----Coriolus versicolor ("Kawaratake")
The test results were presented by the ratio of average weight loss of test specimens due to antimicrobial operation. The standard deviation and coefficient of variation were also determined. The ratio of weight loss for each test specimen was calculated by the following equation, and its average was also determined: The ratio of weight loss(%) = (W₃ - W₄ ) / W₃ × 100. Lower value of the ratio of weight loss corresponds to higher wood preserving activity. […]

For `CCCCCCCCCNC(=O)C#CI` [Example 11, N-(n-Nonyl)-3-iodopropiolamide], in assay [1] (0.5% xylene solution), the “damage value (D = S₁ / S₀ × 100)” value was found to be 82.2. Also, the “Sum (S = A₁ + A₂ + A₃ + A₄ + A₅)” value in assay [1] (0.5% xylene solution, sum of average ratings of five fungi, untreated 15.0) came out at 12.3.
As for `CCCCCCCCNC(=O)C#CI` [Example 10, N-(n-Octyl)-3-iodopropiolamide], the “damage value (D = S₁ / S₀ × 100)” value in assay [1] (0.5% xylene solution) is on record as 54.4.
On to `CC(C)(C)NC(=O)C#CI` [Example 1, N-(tert-Butyl)-3-iodopropiolamide], for which, in assay [1] (0.5% xylene solution), the “damage value (D = S₁ / S₀ × 100)” value amounted to 13.3. Moreover, the wood fungicide activity entry in assay [1] is “excellent wood fungicide activity”. The wood preserving activity result in the assay with wood rot fungi was “excellent wood preserving activity”.
Take `CCCCNC(=O)C#CI` [Example 4, N-(n-Butyl)-3-iodopropiolamide]: the wood fungicide activity result in assay [1] is given as “excellent wood fungicide activity”. For the same molecule, the wood preserving activity result in the assay with wood rot fungi is recorded as “excellent wood preserving activity”.
Take `CCCCCCCCCCNC(=O)C#CI` [Example 2, N-(n-Decyl)-3-iodopropiolamide]: the “damage value (D = S₁ / S₀ × 100)” value in assay [1] (0.5% xylene solution) was determined as 62.2. Further, in the assay with wood rot fungi, the wood preserving activity result is reported as “excellent wood preserving activity”.
For the molecule `CCC(C)NC(=O)C#CI` (stereo not drawn) [Example 5, N-(sec-Butyl)-3-iodopropiolamide], the “damage value (D = S₁ / S₀ × 100)” value in assay [1] (0.5% xylene solution) is reported as 28.9. Also, the wood fungicide activity result in assay [1] is “excellent wood fungicide activity”. Further, the wood preserving activity result with wood rot fungi is listed as “excellent wood preserving activity”.
For the molecule `CCCCCNC(=O)C#CI` [Example 7, N-(n-Pentyl)-3-iodopropiolamide], the “damage value (D = S₁ / S₀ × 100)” value in assay [1] (0.5% xylene solution) amounted to 34.4. Also, the wood preserving activity result in the assay on wood rot fungi is given as “excellent wood preserving activity”.
Take `CC(C)CNC(=O)C#CI` [Example 6, N-Isobutyl-3-iodopropiolamide]: in assay [1] (0.5% xylene solution), the “damage value (D = S₁ / S₀ × 100)” value turned out to be 20.2. Moreover, the wood fungicide activity result in assay [1] is recorded as “excellent wood fungicide activity”. In addition, the wood preserving activity result in the assay with wood rot fungi is recorded as “excellent wood preserving activity”.
For `CCCCCCNC(=O)C#CI` [Example 8, N-(n-Hexyl)-3-iodopropiolamide] the same measures were 23.3, “excellent wood fungicide activity” and “excellent wood preserving activity”.
